Laboratory results from patent US10815238B2, “Antimicrobial compounds and methods of making and using the same” (BIOVERSYS AG, priority 2013, dated 2020).

Experiments:
[1] = test system: Staphylococcus aureus (S. aureus) 11540 strain; experiment: Standard microdilution assay, MIC against S. aureus 11540; format: cell-based; details: S. aureus 11540 strain, standard microdilution assay, cutoff 16 micrograms/mL, read-out: MIC S. aureus
Procedure: The in vitro activity of the compounds of the present invention can be determined. Antimicrobial testing is typically performed to determine the minimum inhibitory concentration (MIC). Minimum inhibitory concentrations (MICs) are determined by the microdilution method in a final volume of 100 μl according to protocols outlined by The Clinical and Laboratory Standards Institute (CLSI). Performance standards for reference strains are assessed within the same experimental design to maintain quality control. See, for example, Clinical Laboratory Standards Institute: Methods for dilution antimicrobial susceptibility tests for bacteria that grow aerobically M7-A8. Approved Standard-Eighth Edition. Wayne, Pa.: CLSI; December 2008; and Clinical Laboratory Standards Institute: Performance Standards for Antimicrobial Susceptibility Testing M100-S20; Approved Standard-Twentieth Edition. Wayne, Pa.: CLSI; June 2010.
The compounds of the present invention were tested for antimicrobial activity. The Compounds 1-582 were run against Eschericia coli (E. coli) strain ATCC25922 and Compounds 320-582 were run against Staphylococcus aureus (S. aureus) 11540 strain using a standard microdilution assay to determine minimum inhibitory concentrations (MICs). […] It will be recognized by one skilled in the art that the compounds can be assessed against other bacterial organisms and that the presentation of data for activity against Eschericia coli and Staphylococcus aureus are illustrative and in no way is intended to limit the scope of the present invention. The compounds of the present invention can be assayed against a range of other microorganisms depending upon the performance activity desired to be gathered. Furthermore, the “+” and “−” representation and the selection of a cutoff value of 16 micrograms/mL is also illustrative and in no way is intended to limit the scope of the present invention.

[2] = test system: Eschericia coli (E. coli) strain ATCC25922; experiment: Standard microdilution assay, MIC against E. coli ATCC25922; format: cell-based; details: Escherichia coli; E. coli strain ATCC25922, standard microdilution assay; cutoff 16 micrograms/mL; read-out: MIC E. Coli
Procedure, shortened: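 Scoring as + or − used a 16 micrograms/mL cutoff on minimum inhibitory concentrations. These came from CLSI-standard microdilution, quality-controlled with reference strains tested in the same run.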

COC[C@@H](CCNC(=N)N)NCc1ccc(-n2cc3cc(-c4cc(CCC[C@@H](N)CO)cc(Cl)c4F)[nH]c3nc2=O)cc1 [Compound 378]
MIC [1]: < 16 µg/mL | MIC [2]: < 16 µg/mL

C[C@H](N)CCCc1cc(Cl)c(F)c(-c2cc3cn(-c4ccc(CN[C@@H](CN)CCNC(=N)N)cc4)c(=O)nc3[nH]2)c1 [Compound 379]
MIC [1]: < 16 µg/mL | MIC [2]: < 16 µg/mL

C[C@H](N)CCCc1cc(OC(F)(F)F)c(F)c(-c2cc3cn(-c4ccc(CN[C@@H](CN)CCNC(=N)N)cc4)c(=O)nc3[nH]2)c1 [Compound 380]
MIC [1]: < 16 µg/mL | MIC [2]: < 16 µg/mL

C[C@H](N)CCCc1cc(Cl)c(F)c(-c2cc3cn(-c4ccc(CN[C@H](C)C[C@@H](CCO)NC(=N)N)cc4)c(=O)nc3[nH]2)c1 [Compound 381]
MIC [1]: < 16 µg/mL | MIC [2]: < 16 µg/mL

C=C[C@H](CCNC(=N)N)N[C@@H](C)c1ccc(-n2cc3cc(-c4cc(CCC[C@H](C)N)cc(Cl)c4F)[nH]c3nc2=O)cc1 [Compound 382]
MIC [1]: < 16 µg/mL | MIC [2]: < 16 µg/mL

C=C[C@H](CCNC(=N)N)N[C@@H](C)c1ccc(-n2cc3cc(-c4cc(CCC[C@H](C)N)cc(OC(F)(F)F)c4F)[nH]c3nc2=O)cc1 [Compound 383]
MIC [1]: < 16 µg/mL | MIC [2]: < 16 µg/mL

C[C@H](N)CCCc1cc(Cl)c(F)c(-c2cc3cn(-c4ccc([C@@H]5COC[C@H](CCNC(=N)N)N5)cc4)c(=O)nc3[nH]2)c1 [Compound 384]
MIC [1]: < 16 µg/mL | MIC [2]: < 16 µg/mL

C[C@H](N)CCCc1cc(Cl)c(F)c(-c2cc3cn(-c4ccc([C@@H]5COC[C@H](CCN)N5)cc4)c(=O)nc3[nH]2)c1 [Compound 385]
MIC [1]: < 16 µg/mL | MIC [2]: < 16 µg/mL

C[C@H](N)CCCc1cc(Cl)c(F)c(-c2cc3cn(-c4ccc([C@H](C)NCC[C@@H]5COC(=O)N5)cc4)c(=O)nc3[nH]2)c1 [Compound 386]
MIC [1]: < 16 µg/mL | MIC [2]: < 16 µg/mL

C=C[C@@H](CCNC(=N)N)NCc1ccc(-n2cc3cc(-c4cc(CCC[C@H](C)N)cc(Cl)c4F)[nH]c3nc2=O)cc1 [Compound 387]
MIC [1]: < 16 µg/mL | MIC [2]: < 16 µg/mL

C=C[C@@H](CCNC(=N)N)NCc1ccc(-n2cc3cc(-c4cc(CCC[C@H](C)N)cc(OC(F)(F)F)c4F)[nH]c3nc2=O)cc1 [Compound 388]
MIC [1]: < 16 µg/mL | MIC [2]: < 16 µg/mL

C[C@H](N)CCCc1cc(Cl)c(F)c(-c2cc3cn(-c4ccc([C@H](C)NCC[C@@H](/C=C/Cl)NC(=N)N)cc4)c(=O)nc3[nH]2)c1 [Compound 389]
MIC [1]: < 16 µg/mL | MIC [2]: < 16 µg/mL

C[C@H](N)CCCc1cc(Cl)c(F)c(-c2cc3cn(-c4ccc([C@H]5COC[C@@H](CO)N5)cc4)c(=O)nc3[nH]2)c1 [Compound 390]
MIC [1]: > 16 µg/mL | MIC [2]: > 16 µg/mL

C[C@H](N)CCCc1cc(Cl)c(F)c(-c2cc3cn(-c4ccc([C@H]5COC[C@@H](c6c[nH]nn6)N5)cc4)c(=O)nc3[nH]2)c1 [Compound 391]
MIC [1]: > 16 µg/mL | MIC [2]: > 16 µg/mL

COc1ccc(Cn2cc([C@@H]3COC[C@H](c4ccc(-n5cc6cc(-c7cc(CCC[C@H](C)N)cc(Cl)c7F)[nH]c6nc5=O)cc4)N3)nn2)cc1 [Compound 392]
MIC [1]: < 16 µg/mL | MIC [2]: > 16 µg/mL

N=C(N)N[C@H](CN)CCNCc1ccc(-n2cc3cc(-c4cc(CCC[C@@H](N)CO)cc(Cl)c4F)[nH]c3nc2=O)cc1 [Compound 393]
MIC [1]: < 16 µg/mL | MIC [2]: < 16 µg/mL

N=C(N)NCC[C@H](CN)NCc1ccc(-n2cc3cc(-c4cc(CCC[C@@H](N)CO)cc(Cl)c4F)[nH]c3nc2=O)cc1 [Compound 394]
MIC [1]: < 16 µg/mL | MIC [2]: < 16 µg/mL

C=C[C@@H](CCNC(=N)N)NCc1ccc(-n2cc3cc(-c4cc(CCC[C@@H](N)CO)cc(Cl)c4F)[nH]c3nc2=O)cc1 [Compound 395]
MIC [1]: < 16 µg/mL | MIC [2]: < 16 µg/mL

C[C@H](N)CCCc1cc(OC(F)(F)F)c(F)c(-c2cc3cn(-c4ccc(CN[C@H](C)C[C@H](CCO)NC(=N)N)cc4)c(=O)nc3[nH]2)c1 [Compound 396]
MIC [1]: < 16 µg/mL | MIC [2]: < 16 µg/mL

C[C@H](N)CCCc1cc(Cl)c(F)c(-c2cc3cn(-c4ccc(CN[C@H](C)C[C@H](CN)NC(=N)N)cc4)c(=O)nc3[nH]2)c1 [Compound 397]
MIC [1]: < 16 µg/mL | MIC [2]: < 16 µg/mL

C[C@H](N)CCCc1cc(OC(F)(F)F)c(F)c(-c2cc3cn(-c4ccc(CN[C@H](C)C[C@H](CN)NC(=N)N)cc4)c(=O)nc3[nH]2)c1 [Compound 398]
MIC [1]: < 16 µg/mL | MIC [2]: < 16 µg/mL

N=C(N)N[C@@H](CN)CCNCc1ccc(-n2cc3cc(-c4cc(CCC[C@@H](N)CO)cc(Cl)c4F)[nH]c3nc2=O)cc1 [Compound 399]
MIC [1]: < 16 µg/mL | MIC [2]: < 16 µg/mL

C[C@H](N)CCCc1cc(Cl)c(F)c(-c2cc3cn(-c4ccc([C@H](C)N(C=O)CCCNC(=N)N)cc4)c(=O)nc3[nH]2)c1 [Compound 400]
MIC [1]: < 16 µg/mL | MIC [2]: < 16 µg/mL

C[C@H](N)CCCc1cc(Cl)c(F)c(-c2cc3cn(-c4ccc(CN[C@H](C)C[C@@H](CN)NC(=N)N)cc4)c(=O)nc3[nH]2)c1 [Compound 401]
MIC [1]: < 16 µg/mL | MIC [2]: < 16 µg/mL

C[C@H](N)CCCc1cc(OC(F)(F)F)c(F)c(-c2cc3cn(-c4ccc(CN[C@H](C)C[C@@H](CN)NC(=N)N)cc4)c(=O)nc3[nH]2)c1 [Compound 402]
MIC [1]: < 16 µg/mL | MIC [2]: < 16 µg/mL

C[C@H](N)CCCc1cc(Cl)c(F)c(-c2cc3cn(-c4ccc(C5(CCN)CN(C(=N)N)C5)cc4)c(=O)nc3[nH]2)c1 [Compound 403]
MIC [1]: < 16 µg/mL | MIC [2]: < 16 µg/mL

C[C@H](N)CCCc1cc(Cl)c(F)c(-c2cc3cn(-c4ccc(C5(CCNC(=N)N)CN(C(=N)N)C5)cc4)c(=O)nc3[nH]2)c1 [Compound 404]
MIC [1]: < 16 µg/mL | MIC [2]: < 16 µg/mL

C[C@H](N)CCCc1cc(Cl)c(F)c(-c2cc3cn(-c4ccc([C@@H]5CC(CCNC(=N)N)CN5)cc4)c(=O)nc3[nH]2)c1 (some centres unmarked) [Compound 405]
MIC [1]: < 16 µg/mL | MIC [2]: < 16 µg/mL

C[C@H](N)CCCc1cc(Cl)c(F)c(-c2cc3cn(-c4ccc([C@@H]5CC(CCN)CN5)cc4)c(=O)nc3[nH]2)c1 (some centres unmarked) [Compound 406]
MIC [1]: < 16 µg/mL | MIC [2]: < 16 µg/mL

C[C@H](N)CCCc1cc(Cl)c(F)c(-c2cc3cn(-c4ccc([C@@H]5CC(CCNC(=N)N)CN5C(=N)N)cc4)c(=O)nc3[nH]2)c1 (some centres unmarked) [Compound 407]
MIC [1]: < 16 µg/mL | MIC [2]: < 16 µg/mL

C[C@H](N)CCCc1cc(OC(F)(F)F)c(F)c(-c2cc3cn(-c4ccc([C@@H]5CC(CCNC(=N)N)CN5)cc4)c(=O)nc3[nH]2)c1 (some centres unmarked) [Compound 408]
MIC [1]: < 16 µg/mL | MIC [2]: < 16 µg/mL

C[C@H](N)CCCc1cc(OC(F)(F)F)c(F)c(-c2cc3cn(-c4ccc([C@@H]5CC(CCN)CN5)cc4)c(=O)nc3[nH]2)c1 (some centres unmarked) [Compound 409]
MIC [1]: < 16 µg/mL | MIC [2]: < 16 µg/mL

C[C@H](N)CCCc1cc(Cl)c(F)c(-c2cc3cn(-c4ccc([C@@H](N)CCCN)cc4)c(=O)nc3[nH]2)c1 [Compound 410]
MIC [1]: < 16 µg/mL | MIC [2]: < 16 µg/mL

C[C@H](N)CCCc1cc(OC(F)(F)F)c(F)c(-c2cc3cn(-c4ccc([C@@H](N)CCCN)cc4)c(=O)nc3[nH]2)c1 [Compound 411]
MIC [1]: < 16 µg/mL | MIC [2]: < 16 µg/mL

C[C@H](N)CCCc1cc(Cl)c(F)c(-c2cc3cn(-c4ccc([C@@H](N)CCCNC(=N)N)cc4)c(=O)nc3[nH]2)c1 [Compound 412]
MIC [1]: < 16 µg/mL | MIC [2]: < 16 µg/mL

C[C@H](N)CCCc1cc(OC(F)(F)F)c(F)c(-c2cc3cn(-c4ccc([C@@H](N)CCCNC(=N)N)cc4)c(=O)nc3[nH]2)c1 [Compound 413]
MIC [1]: < 16 µg/mL | MIC [2]: < 16 µg/mL

CC[C@H](N)CCCc1cc(Cl)c(F)c(-c2cc3cn(-c4ccc([C@H](C)NCC[C@H](CN)NC(=N)N)cc4)c(=O)nc3[nH]2)c1 [Compound 414]
MIC [1]: < 16 µg/mL | MIC [2]: < 16 µg/mL

CC[C@H](N)CCCc1cc(Cl)c(F)c(-c2cc3cn(-c4ccc(CNCC[C@H](CN)NC(=N)N)cc4)c(=O)nc3[nH]2)c1 [Compound 415]
MIC [1]: < 16 µg/mL | MIC [2]: < 16 µg/mL

CC[C@H](N)CCCc1cc(Cl)c(F)c(-c2cc3cn(-c4ccc(CN5CC[C@H](CN)NC5=N)cc4)c(=O)nc3[nH]2)c1 [Compound 416]
MIC [1]: < 16 µg/mL | MIC [2]: < 16 µg/mL

C[C@H](N)CCCc1cc(Cl)c(F)c(-c2cc3cn(-c4ccc(CN5CC[C@H](CN)NC5=N)cc4)c(=O)nc3[nH]2)c1 [Compound 417]
MIC [1]: < 16 µg/mL | MIC [2]: < 16 µg/mL

C[C@H](N)CCCc1cc(Cl)c(F)c(-c2cc3cn(-c4ccc(CN5CC[C@H](CN6CCOCC6)NC5=N)cc4)c(=O)nc3[nH]2)c1 [Compound 418]
MIC [1]: < 16 µg/mL | MIC [2]: < 16 µg/mL

C[C@H](N)CCCc1cc(OC(F)(F)F)c(F)c(-c2cc3cn(-c4ccc(CN5CC[C@H](CN6CCOCC6)NC5=N)cc4)c(=O)nc3[nH]2)c1 [Compound 419]
MIC [1]: < 16 µg/mL | MIC [2]: < 16 µg/mL

C[C@H](N)CCCc1cc(Cl)c(F)c(-c2cc3cn(-c4ccc([C@@H]5CCC[C@@H](CCNC(=N)N)N5)cc4)c(=O)nc3[nH]2)c1 [Compound 420]
MIC [1]: < 16 µg/mL | MIC [2]: < 16 µg/mL
